In patent publication US20230059009A1, “INHIBITORS OF LIN28 AND METHODS OF USE THEREOF” (The Regents of the University of California, priority 2019, published 2023):

Columns and labels:
22RV1 = assay: Cell viability, MTT assay, 22RV1; type: cell-based; settings: 22RV1 (Prostate), 96 hr
Method: (§1) To measure cell viability, cell titer glow (CTG, Promega CellTiter-Glo 2.0 Assay) and MTT assays (SigmaAldrich, Cell Proliferation Kit I) were performed. Briefly, cells were serum starved overnight prior to seeding in 96-well plates. Following 24 h incubation, cells were treated with increasing concentrations of JGJ compounds for 96 hr. At assay read-out, CellTiter-Glo reagent was added and luminescence was measured after 10-minutes incubation at room temperature. For the MTT assay, MTT labeling reagent was added and incubated for 4 h. Subsequently, medium was removed and 50 μL DMSO was added to solubilize the crystals, and absorbance was measured at 570 nm. Cell viability was calculated as (Sample-Background)/(Control-Background).

MDA-MB231 [1] = assay: Cell viability, CTG, MDA-MB231; type: cell-based; settings: Homo sapiens, MDA-MB-231, MDA-MB231 (Breast)
Method: as §1, with “(Sample-Background)/(Control-Background). Current standard of care drugs, Enzalutamide, Palbociclib and Cetuximab were used as comparative controls.” for “(Sample-Background)/(Control-Background).”

SW620 = assay: Cell viability, MTT assay, SW620; type: cell-based
Method: as §1, with “(Sample-Background)/(Control-Background). Current standard of care drugs, Enzalutamide, Palbociclib and Cetuximab were used as comparative controls.” for “(Sample-Background)/(Control-Background).”

H23 = assay: Cell viability, MTT assay, H23; type: cell-based
Method: as §1, with “(Sample-Background)/(Control-Background). Current standard of care drugs, Enzalutamide, Palbociclib and Cetuximab were used as comparative controls.” for “(Sample-Background)/(Control-Background).”

MCF7 = assay: Cell viability, MTT assay, MCF7; type: cell-based; settings: MCF7 (Breast)
Method: as §1, with “(Sample-Background)/(Control-Background). Current standard of care drugs, Enzalutamide, Palbociclib and Cetuximab were used as comparative controls.” for “(Sample-Background)/(Control-Background).”

CYP 2C9 = CYP 2C9 (Homo sapiens, UniProt P11712); assay: CYP inhibition 2C9; type: in vitro ADME; design: unit not given here; settings: Conc. 30 uM
Sequence of CYP 2C9 (P11712 whole entry): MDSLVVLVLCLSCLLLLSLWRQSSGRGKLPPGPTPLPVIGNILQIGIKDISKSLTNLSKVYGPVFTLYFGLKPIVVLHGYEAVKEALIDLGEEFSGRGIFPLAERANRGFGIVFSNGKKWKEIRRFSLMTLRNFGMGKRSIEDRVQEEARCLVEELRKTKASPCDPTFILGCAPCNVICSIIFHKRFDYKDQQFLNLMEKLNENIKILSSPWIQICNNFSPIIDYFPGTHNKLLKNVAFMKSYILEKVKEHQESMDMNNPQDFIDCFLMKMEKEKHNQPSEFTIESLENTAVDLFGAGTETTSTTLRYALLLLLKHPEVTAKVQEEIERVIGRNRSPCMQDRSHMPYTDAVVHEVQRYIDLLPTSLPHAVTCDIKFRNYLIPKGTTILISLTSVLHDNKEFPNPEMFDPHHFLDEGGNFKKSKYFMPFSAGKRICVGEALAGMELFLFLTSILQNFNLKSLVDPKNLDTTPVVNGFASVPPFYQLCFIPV

HCT-116 = assay: Cell viability, CTG, HCT-116; type: cell-based; settings: HCT-116 (Colon)
Method: as §1, with “(Sample-Background)/(Control-Background). Current standard of care drugs, Enzalutamide, Palbociclib and Cetuximab were used as comparative controls.” for “(Sample-Background)/(Control-Background).”

Caco2 permeability = type: in vitro ADME; settings: human, Caco-2, Conc. 30 uM; for recovery at 30 uM: read-out: Caco2 Mean A-B % Recovery
[2] = Microsomal stability, CD-1 Mouse; type: in vitro ADME; settings: for CLint scaled at 30 uM / half-life at 30 uM: microsomes; for half-life at 30 uM: read-out: Microsomal stability T½
H1975 = assay: Cell viability, MTT assay, H1975; type: cell-based
Method: as §1

ASPC-1 = assay: Cell viability, CTG, ASPC-1; type: cell-based
Method: as §1, with “(Sample-Background)/(Control-Background). Current standard of care drugs, Enzalutamide, Palbociclib and Cetuximab were used as comparative controls.” for “(Sample-Background)/(Control-Background).”

LNCaP = assay: Cell viability, MTT assay, LNCaP; type: cell-based; settings: LNCaP (Prostate)
Method: as §1

CAPAN-1 = assay: Cell viability, CTG, CAPAN-1; type: cell-based; settings: CAPAN-1 (Pancreatic)
Method: as §1, with “(Sample-Background)/(Control-Background). Current standard of care drugs, Enzalutamide, Palbociclib and Cetuximab were used as comparative controls.” for “(Sample-Background)/(Control-Background).”

MDA-MB231 [3] = assay: Cell viability, MTT assay, MDA-MB231; type: cell-based
Method: as §1, with “(Sample-Background)/(Control-Background). Current standard of care drugs, Enzalutamide, Palbociclib and Cetuximab were used as comparative controls.” for “(Sample-Background)/(Control-Background).”

CYP 2C19 = CYP 2C19 (Homo sapiens, UniProt P33261); assay: CYP inhibition 2C19; type: in vitro ADME; design: unit not given here; settings: Conc. 30 uM
Sequence of CYP 2C19 (P33261 whole entry): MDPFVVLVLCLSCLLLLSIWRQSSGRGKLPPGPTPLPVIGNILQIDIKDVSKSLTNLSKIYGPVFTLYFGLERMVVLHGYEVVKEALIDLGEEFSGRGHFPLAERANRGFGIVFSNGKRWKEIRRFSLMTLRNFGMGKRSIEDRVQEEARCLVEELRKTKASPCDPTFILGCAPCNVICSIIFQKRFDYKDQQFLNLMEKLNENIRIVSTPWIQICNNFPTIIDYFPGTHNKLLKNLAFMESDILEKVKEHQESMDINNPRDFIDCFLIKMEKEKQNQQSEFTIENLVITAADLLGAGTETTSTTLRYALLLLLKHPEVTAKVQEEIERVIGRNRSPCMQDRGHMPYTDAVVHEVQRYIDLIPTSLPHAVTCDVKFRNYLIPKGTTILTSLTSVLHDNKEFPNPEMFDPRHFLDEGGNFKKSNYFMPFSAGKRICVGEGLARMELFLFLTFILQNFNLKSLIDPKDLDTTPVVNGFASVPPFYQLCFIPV

BT-549 = assay: Cell viability, CTG, BT-549; type: cell-based; settings: BT-549 (Breast)
Method: as §1, with “(Sample-Background)/(Control-Background). Current standard of care drugs, Enzalutamide, Palbociclib and Cetuximab were used as comparative controls.” for “(Sample-Background)/(Control-Background).”

CYP 2C8 = molecular target: T1, CYP 2C8 (Homo sapiens, UniProt P10632); assay: CYP inhibition 2C8; type: in vitro ADME; design: unit not given here; settings: Conc. 30 uM
T1 sequence (P10632 1-490): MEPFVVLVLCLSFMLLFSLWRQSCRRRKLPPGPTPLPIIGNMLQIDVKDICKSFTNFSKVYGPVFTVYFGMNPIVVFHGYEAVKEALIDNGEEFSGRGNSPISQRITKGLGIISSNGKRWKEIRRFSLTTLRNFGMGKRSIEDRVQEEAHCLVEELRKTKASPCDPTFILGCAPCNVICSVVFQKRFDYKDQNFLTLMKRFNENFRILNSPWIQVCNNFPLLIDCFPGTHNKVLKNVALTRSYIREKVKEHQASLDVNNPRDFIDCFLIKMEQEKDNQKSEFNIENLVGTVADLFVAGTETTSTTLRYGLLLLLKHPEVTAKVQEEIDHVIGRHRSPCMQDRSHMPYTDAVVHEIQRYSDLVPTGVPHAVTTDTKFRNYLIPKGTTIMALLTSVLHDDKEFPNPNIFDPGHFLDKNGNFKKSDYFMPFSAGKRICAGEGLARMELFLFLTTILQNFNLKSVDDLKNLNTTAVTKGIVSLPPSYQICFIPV

DU145 = assay: Cell viability, MTT assay, DU145; type: cell-based; settings: Homo sapiens, DU-145, DU145 (Prostate)
Method: as §1, with “(Sample-Background)/(Control-Background). Current standard of care drugs, Enzalutamide, Palbociclib and Cetuximab were used as comparative controls.” for “(Sample-Background)/(Control-Background).”

A549 = assay: Cell viability, MTT assay, A549; type: cell-based; settings: A549 (Lung)
Method: as §1

SW480 [4] = assay: Cell viability, MTT assay, SW480; type: cell-based; settings: SW480 (Colon)
Method: as §1, with “(Sample-Background)/(Control-Background). Current standard of care drugs, Enzalutamide, Palbociclib and Cetuximab were used as comparative controls.” for “(Sample-Background)/(Control-Background).”

H1568 = assay: Cell viability, MTT assay, H1568; type: cell-based
Method: as §1, with “(Sample-Background)/(Control-Background). Current standard of care drugs, Enzalutamide, Palbociclib and Cetuximab were used as comparative controls.” for “(Sample-Background)/(Control-Background).”

SW480 [5] = assay: Cell viability, CTG, SW480; type: cell-based; settings: SW480 (Colon)
Method: as §1

H460 = assay: Cell viability, MTT assay, H460; type: cell-based
Method: as §1, with “(Sample-Background)/(Control-Background). Current standard of care drugs, Enzalutamide, Palbociclib and Cetuximab were used as comparative controls.” for “(Sample-Background)/(Control-Background).”

[6] = Homo sapiens, SW-620, SW620 (Colon)
[7] = Homo sapiens, NCI-H23, H23 (Lung)
[8] = Homo sapiens, NCI-H1975, H1975 (Lung)
[9] = Homo sapiens, ASPC1, ASPC-1 (Pancreatic)
[10] = Homo sapiens, MDA-MB-231, MDA-MB231 (Breast)
[11] = Homo sapiens, NCI-H460, H460 (Lung)

IC50 (22RV1; Homo sapiens) [µM]	IC50 (MDA-MB231 [1]) [µM]	IC50 (SW620; [6]) [µM]	IC50 (MCF7; Homo sapiens) [µM]	CYP inhibition 2C9 (CYP 2C9)	IC50 (HCT-116; Homo sapiens) [µM]	Papp A→B at 30 uM (Caco2 permeability) [×10⁻⁶ cm/s]	Papp B→A at 30 uM (Caco2 permeability) [×10⁻⁶ cm/s]	efflux ratio at 30 uM (Caco2 permeability)	recovery at 30 uM (Caco2 permeability) [%]	Microsomal stability % Remaining at T30 ([2]; Conc. 30 uM)	CLint scaled at 30 uM ([2]; Conc. 30 uM) [mL/min/kg]	half-life at 30 uM ([2]; Conc. 30 uM) [min]	IC50 (H1975; [8]) [µM]	IC50 (ASPC-1; [9]) [µM]	IC50 (LNCaP; Homo sapiens) [µM]	IC50 (MDA-MB231 [3]; [10]) [µM]	CYP inhibition 2C19 (CYP 2C19)	SMILES	IC50 (H23; [7]) [µM]	IC50 (CAPAN-1; Homo sapiens) [µM]	also measured
97	43	64	45	24.65	148	36.2	30	0.829	87	T30 = 37.6%	257	21.2	31	188	54	39	37.08	CC(=O)Nc1cccc(-c2ccc3ncc(C)n3n2)c1 [JGJ007, N-(3-(3-Methylimidazo[1,2-b]pyridazin-6-yl)phenyl)acetamide]	95	91	IC50 (BT-549; Homo sapiens): 75 µM; CYP inhibition 2C8 (CYP 2C8): 19.11; IC50 (DU145): 5 µM; IC50 (A549; Homo sapiens): 97 µM; IC50 (SW480 [4]; Homo sapiens): 64 µM; IC50 (H1568; NCI-H1568, H1568 (Lung)): 47 µM; IC50 (SW480 [5]; Homo sapiens): 68 µM; IC50 (H460; [11]): 512 µM
209	75	62	59	14.27	148	24.1	21.1	0.874	67.3	T30 = 2.3%	988	5.52	51	157	83	145	49.8	Cc1cnc2ccc(-c3cccc(F)c3)nn12 [JGJ015, 6-(3-Fluorophenyl)-3-methylimidazo[1,2-b]pyridazine]	62	137	IC50 (BT-549; Homo sapiens): 48 µM; CYP inhibition 2C8 (CYP 2C8): 17.82; IC50 (DU145): 30 µM; IC50 (A549; Homo sapiens): 93 µM; IC50 (SW480 [4]; Homo sapiens): 53 µM; IC50 (SW480 [5]; Homo sapiens): 110 µM; IC50 (H460; [11]): 594 µM
–	–	–	–	–	–	–	–	–	–	–	–	–	–	–	–	–	–	CC(=O)N(C)c1cccc(-c2ccc3nnc(C)n3n2)c1 [LN1632]	–	–	IC50 (22RV1): 236 µM; IC50 (SW620; SW620 (Colon)): 161 µM; IC50 (H23; H23 (Lung)): 167 µM; IC50 (MCF7): 144 µM; IC50 (HCT-116): 158 µM; Microsomal stability % Remaining at T30 ([2]; Conc. 100 uM): T30 = 90.2%; Microsomal stability CLint ([2]; Conc. 100 uM): kg) = 27 mL/min/kg; Microsomal stability T½ ([2]; Conc. 100 uM): T½ = 202 min; IC50 (H1975; H1975 (Lung)): 91 µM; IC50 (ASPC-1; ASPC-1 (Pancreatic)): 111 µM; IC50 (LNCaP): 110 µM; IC50 (CAPAN-1): 82 µM; IC50 (MDA-MB231 [3]; MDA-MB231 (Breast)): 136 µM; IC50 (BT-549): 151 µM; IC50 (A549): 151 µM; IC50 (SW480 [4]): 155 µM; IC50 (H1568; H1568 (Lung)): 128 µM; IC50 (SW480 [5]): 168 µM; IC50 (H460; H460 (Lung)): 172 µM
